Experimental data from patent EP2818472A1, “Imidazo[4,5-c]pyridine and pyrrolo[3,2-c]pyridine compounds as G-protein-coupled receptor kinase 5 (GRK5) modulators” (Max-Planck-Gesellschaft zur Förderung der Wissenschaften …, priority 2013, dated 2014).

Tested on: beta-TC6 cells
Experiment: Insulin HTRF assay (relative activity Ar) in beta-TC6 cells
Format: cell-based, mouse
Details: Mus musculus, Beta-TC6, 4 h, insulin HTRF, supernatant of beta-TC6 cells, incubation with test compound at 37°C for 2, 3, 4h; read-out: Ar (relative activity)
Method in brief: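 beta-TC6 cells (15k/well, seeded 24 or 48 h) washed, then exposed to compound in induction buffer (0.5% DMSO final) for 2, 3 or 4 h at 37°C.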

`COc1cccc(-c2nc3c(Nc4ccccc4)nccc3[nH]2)c1F` [Compound 472, 2-(2-fluoro-3-methoxy-phenyl)-N-phenyl-1H-imidazo[4,5-c]pyridin-4-amine] and `COc1cccc(-c2nc3c(Nc4cccc(O)c4)nccc3[nH]2)c1F` [Compound 478, 3-[[2-(2-fluoro-3-methoxy-phenyl)-1H-imidazo[4,5-c]pyridin-4-yl]amino]phenol] fall in the same range of Emax: 50 to 100% for the first, 50 to 100% for the second.

`COc1cccc(-c2nc3c(Nc4ccc(F)c(Cl)c4)nccc3[nH]2)c1F` [Compound 474, N-(3-chloro-4-fluoro-phenyl)-2-(2-fluoro-3-methoxy-phenyl)-1H-imidazo[4,5-c]pyridin-4-amine] and `COc1cccc(-c2nc3c(Nc4cccc(F)c4)nccc3[nH]2)c1F` [Compound 481, 2-(2-fluoro-3-methoxy-phenyl)-N-(3-fluorophenyl)-1H-imidazo[4,5-c]pyridin-4-amine] fall in the same range of Emax: 30 to 50% for the first, 30 to 50% for the second.

Compared with `COc1cccc(-c2nc3c(NC4CCC(N)CC4)nccc3[nH]2)c1F` (stereo not shown) [Compound 476, N4-[2-(2-fluoro-3-methoxy-phenyl)-1H-imidazo[4,5-c]pyridin-4-yl]cyclohexane-1,4-diamine], `COc1cccc(-c2nc3c(N4CCOCC4)nccc3[nH]2)c1F` [Compound 480, 4-[2-(2-fluoro-3-methoxy-phenyl)-1H-imidazo[4,5-c]pyridin-4-yl]morpholine] is higher in Emax: 0 to 30% for the first, 30 to 50% for the second.

First: COc1cccc(-c2nc3c(Nc4cccc(S(C)(=O)=O)c4)nccc3[nH]2)c1F [Compound 477, 2-(2-fluoro-3-methoxy-phenyl)-N-(3-methylsulfonylphenyl)-1H-imidazo[4,5-c]pyridin-4-amine]
Second: COc1ccc(Nc2nccc3[nH]c(-c4cccc(OC)c4F)nc23)cc1O [Compound 479, 5-[[2-(2-fluoro-3-methoxy-phenyl)-1H-imidazo[4,5-c]pyridin-4-yl]amino]-2-methoxy-phenol]
The Emax of the first is lower: 30 to 50% for the first, greater than 100% for the second.

`CNc1nc2cnc(Nc3cc(OC)c(OC)c(OC)c3)cc2n1-c1cc(OC)c(OC)c(OC)c1` [Compound 482, N2-methyl-N6,1-bis(3,4,5-trimethoxyphenyl)imidazo[4,5-c]pyridine-2,6-diamine] and `CNc1nc2cnc(Nc3ccc(OC)cc3OC)cc2n1-c1cc(OC)c(OC)c(OC)c1` [Compound 486, N6-(2,4-dimethoxyphenyl)-N2-methyl-1-(3,4,5-trimethoxyphenyl)imidazo[4,5-c]pyridine-2,6-diamine] fall in the same range of Emax: 30 to 50% for the first, 30 to 50% for the second.

`CNc1nc2cnc(Nc3ccc(NC(C)=O)cc3)cc2n1-c1cc(OC)c(OC)c(OC)c1` [Compound 483, N-[4-[[2-(methylamino)-1-(3,4,5-trimethoxyphenyl)imidazo[4,5-c]pyridin-6-yl]amino]phenyl]acetamide] and `CNc1nc2cnc(Nc3cccc(NC(C)=O)c3)cc2n1-c1cc(OC)c(OC)c(OC)c1` [Compound 493, N-[3-[[2-(methylamino)-1-(3,4,5-trimethoxyphenyl)imidazo[4,5-c]pyridin-6-yl]amino]phenyl]acetamide] fall in the same range of Emax: 50 to 100% for the first, 50 to 100% for the second.

Compared with `CNc1nc2cnc(Nc3cccc(OC)c3)cc2n1-c1cc(OC)c(OC)c(OC)c1` [Compound 484, N6-(3-methoxyphenyl)-N2-methyl-1-(3,4,5-trimethoxyphenyl)imidazo[4,5-c]pyridine-2,6-diamine], `CNc1nc2cnc(Nc3cccc(O)c3)cc2n1-c1cc(OC)c(OC)c(OC)c1` [Compound 491, 3-[[2-(methylamino)-1-(3,4,5-trimethoxyphenyl)imidazo[4,5-c]pyridin-6-yl]amino]phenol] is higher in Emax: 30 to 50% for the first, 50 to 100% for the second.

`CNc1nc2cnc(Nc3ccc(O)cc3)cc2n1-c1cc(OC)c(OC)c(OC)c1` [Compound 485, 4-[[2-(methylamino)-1-(3,4,5-trimethoxyphenyl)imidazo[4,5-c]pyridin-6-yl]amino]phenol] and `CNc1nc2cnc(Nc3ccc(OC)cc3)cc2n1-c1cc(OC)c(OC)c(OC)c1` [Compound 490, N6-(4-methoxyphenyl)-N2-methyl-1-(3,4,5-trimethoxyphenyl)imidazo[4,5-c]pyridine-2,6-diamine] fall in the same range of Emax: 50 to 100% for the first, 50 to 100% for the second.

First: CNc1nc2cnc(Nc3ccc4c(c3)OCCO4)cc2n1-c1cc(OC)c(OC)c(OC)c1 [Compound 487, N6-(2,3-dihydro-1,4-benzodioxin-6-yl)-N2-methyl-1-(3,4,5-trimethoxyphenyl)imidazo[4,5-c]pyridine-2,6-diamine]
Second: CNc1nc2cnc(Nc3cccc(F)c3)cc2n1-c1cc(OC)c(OC)c(OC)c1 [Compound 494, N6-(3-fluorophenyl)-N2-methyl-1-(3,4,5-trimethoxyphenyl)imidazo[4,5-c]pyridine-2,6-diamine]
The Emax of the first is higher: 50 to 100% for the first, 30 to 50% for the second.

First: CNc1nc2cnc(Nc3ccc(OC)nc3)cc2n1-c1cc(OC)c(OC)c(OC)c1 [Compound 488, N6-(6-methoxy-3-pyridyl)-N2-methyl-1-(3,4,5-trimethoxyphenyl)imidazo[4,5-c]pyridine-2,6-diamine]
Second: CNc1nc2cnc(Nc3cccc(NS(C)(=O)=O)c3)cc2n1-c1cc(OC)c(OC)c(OC)c1 [Compound 492, N-[3-[[2-(methylamino)-1-(3,4,5-trimethoxyphenyl)imidazo[4,5-c]pyridin-6-yl]amino]phenyl]methanesulfonamide]
The Emax of the first is higher: 50 to 100% for the first, 30 to 50% for the second.

`CNc1nc2cnc(Nc3ccc(N4CCN(C)CC4)cc3)cc2n1-c1cc(OC)c(OC)c(OC)c1` [Compound 489, N2-methyl-N6-[4-(4-methylpiperazin-1-yl)phenyl]-1-(3,4,5-trimethoxyphenyl)imidazo[4,5-c]pyridine-2,6-diamine] and `CNc1nc2cnc(Nc3cc(OC)c(OC)c(OC)c3)cc2n1-c1ccccc1` [Compound 502, N2-methyl-1-phenyl-N6-(3,4,5-trimethoxyphenyl)imidazo[4,5-c]pyridine-2,6-diamine] fall in the same range of Emax: 50 to 100% for the first, 50 to 100% for the second.

Compared with `CNc1nc2cnc(Nc3ccc(OC)c(OC)c3)cc2n1CCOC` [Compound 495, N6-(3,4-dimethoxyphenyl)-1-(2-methoxyethyl)-N2-methyl-imidazo[4,5-c]pyridine-2,6-diamine], `CNc1nc2cnc(Nc3ccc(OC)cc3)cc2n1CCOC` [Compound 496, 1-(2-methoxyethyl)-N6-(4-methoxyphenyl)-N2-methyl-imidazo[4,5-c]pyridine-2,6-diamine] is higher in Emax: 30 to 50% for the first, 50 to 100% for the second.

`CNc1nc2cnc(Nc3ccc4c(c3)OCO4)cc2n1CCOC` [Compound 497, N6-(1,3-benzodioxol-5-yl)-1-(2-methoxyethyl)-N2-methyl-imidazo[4,5-c]pyridine-2,6-diamine] and `CNc1nc2cnc(Nc3ccc(SC)cc3)cc2n1CCOC` [Compound 499, 1-(2-methoxyethyl)-N2-methyl-N6-(4-methylsulfanylphenyl)imidazo[4,5-c]pyridine-2,6-diamine] fall in the same range of Emax: 50 to 100% for the first, 50 to 100% for the second.

First: CNc1nc2cnc(Nc3ccc(C(C)C)cc3)cc2n1CCOC [Compound 498, N6-(4-isopropylphenyl)-1-(2-methoxyethyl)-N2-methyl-imidazo[4,5-c]pyridine-2,6-diamine]
Second: CNc1nc2cnc(Nc3ccc(OC(C)C)cc3)cc2n1CCOC [Compound 500, N6-(4-isopropoxyphenyl)-1-(2-methoxyethyl)-N2-methyl-imidazo[4,5-c]pyridine-2,6-diamine]
The Emax of the first is lower: 30 to 50% for the first, 50 to 100% for the second.

`CNc1nc2cnc(Nc3cccc(OC)c3)cc2n1-c1ccccc1` [Compound 503, N6-(3-methoxyphenyl)-N2-methyl-1-phenyl-imidazo[4,5-c]pyridine-2,6-diamine] and `CNc1nc2cnc(Nc3ccc(OC)cc3)cc2n1-c1ccccc1` [Compound 509, N6-(4-methoxyphenyl)-N2-methyl-1-phenyl-imidazo[4,5-c]pyridine-2,6-diamine] fall in the same range of Emax: 50 to 100% for the first, 50 to 100% for the second.

First: CNc1nc2cnc(Nc3ccc(C(N)=O)cc3)cc2n1-c1ccccc1 [Compound 504, 4-[[2-(methylamino)-1-phenyl-imidazo[4,5-c]pyridin-6-yl]amino]benzamide]
Second: CNc1nc2cnc(Nc3ccc(C(=O)OC)cc3)cc2n1-c1ccccc1 [Compound 511, methyl 4-[[2-(methylamino)-1-phenyl-imidazo[4,5-c]pyridin-6-yl]amino]benzoate]
The Emax of the first is higher: 50 to 100% for the first, 30 to 50% for the second.

`CNc1nc2cnc(Nc3ccc4c(c3)OCCO4)cc2n1-c1ccccc1` [Compound 505, N6-(2,3-dihydro-1,4-benzodioxin-6-yl)-N2-methyl-1-phenyl-imidazo[4,5-c]pyridine-2,6-diamine] and `CNc1nc2cnc(Nc3ccc4c(c3)OCO4)cc2n1-c1ccccc1` [Compound 512, N6-(1,3-benzodioxol-5-yl)-N2-methyl-1-phenyl-imidazo[4,5-c]pyridine-2,6-diamine] fall in the same range of Emax: 50 to 100% for the first, 50 to 100% for the second.

`CNc1nc2cnc(Nc3ccc(OC)c(OC)c3)cc2n1-c1ccccc1` [Compound 506, N6-(3,4-dimethoxyphenyl)-N2-methyl-1-phenyl-imidazo[4,5-c]pyridine-2,6-diamine] and `CNc1nc2cnc(Nc3cccc(N(C)C)c3)cc2n1-c1ccccc1` [Compound 508, N6-[3-(dimethylamino)phenyl]-N2-methyl-1-phenyl-imidazo[4,5-c]pyridine-2,6-diamine] fall in the same range of Emax: 50 to 100% for the first, 50 to 100% for the second.

With `CNc1nc2cnc(Nc3cccnc3)cc2n1-c1ccccc1` [Compound 507, N2-methyl-1-phenyl-N6-(3-pyridyl)imidazo[4,5-c]pyridine-2,6-diamine] the Emax was 30 to 50%.

Same assay, conditions: Mus musculus, Beta-TC6, 4 h, read-out: Ar (relative activity)

Compound `CCN(CC)CCNC(=O)c1ccc(Nc2nccc3[nH]c(-c4cccc(OC)c4F)nc23)cc1` [Compound 473, N-(2-diethylaminoethyl)-4-[[2-(2-fluoro-3-methoxy-phenyl)-1H-imidazo[4,5-c]pyridin-4-yl]amino]benzamide] has an Emax greater than 100%.

Same assay, conditions: insulin HTRF, supernatant of beta-TC6 cells, incubation with test compound at 37°C for 2, 3, 4h

In the case of `CNc1nc2cnc(-c3ccc(N(C)C)cc3)cc2n1-c1ccccc1` [Compound 501, 6-(4-dimethylaminophenyl)-N-methyl-1-phenyl-imidazo[4,5-c]pyridin-2-amine], the “Ar (relative activity)” value is reported as “++++ (Ar ≥ 100 %)”.
With `CNc1nc2cnc(-c3ccc(CO)cc3)cc2n1-c1ccccc1` [Compound 510, [4-[2-(methylamino)-1-phenyl-imidazo[4,5-c]pyridin-6-yl]phenyl]methanol] the “Ar (relative activity)” value was “++ (30 % ≤ Ar < 50 %)”.
